Data published in patent US20200315996A1 (Board of Trustees, Southern Illinois University, priority 2016, published 2020).

Columns and labels:
endometriotic lesions = experiment: Mouse model of endometriosis, growth of implanted endometriotic lesions (Study 1); type: in vivo, mice; conditions: for lesion weight / lesion volume: 3 weeks; for lesion weight: controls 0.044±0.007 g; for lesion volume: controls 40.1±6.6 mm3; for total weight of lesions: controls 154.0±29.3 mg
From the text: An experimental mouse model of endometriosis was established adopting procedures described previously with some modification [Han, 2012; Hirata, 2005; Kulak, 2011; Pelch, 2012; Zhao, 2014]. Female, eight week old B6-GFP mice were used as donor mice. These mice are transgenic mice whose cells endogenously express a green fluorescent protein (GFP) which is detectable under fluorescent light. When implanted to a GFP-negative recipient mouse, tissue implants from GFP-positive donor mice can be distinguished from the tissues of the recipient mice. Ectopic GFP-positive lesions were microscopically examined to evaluate the implants for accurate growth and progression. Briefly, the uterine horns were removed from donor mice during the diestrus stage of the reproductive cycle. […] Then, the uterine pieces were maintained in warmed DMEM/F12 medium (#10-090, Corning). […] The recipient mice were selected during the diestrus stage and anesthetized. In each mouse, a longitudinal abdominal incision was made, and uterine pieces from donor mice were sutured to the right or left side of the peritoneal walls of each animal (implanting each 2-mm and 3-mm piece per side) using a 6-0 braided silk suture (# SUT-1073-11, Roboz). Then, the abdominal incision was closed with a 4-0 braided silk suture (# SUT-1073-31, Roboz). […] Uterine tissue pieces of B6-GFP mice (donor) were implanted into the peritoneal walls of recipient mice. […] The lesion volume was calculated according to the formula (L×W^2), where L is length and W is width [[…], 2007].

apoptosis = experiment: TUNEL assay of endometriotic lesions; type: in vivo, mice; conditions: 3 weeks, control 8.7 ± 1.3
Description: The TUNEL assay is another immunohistological method used to show the amount of apoptosis, or programmed cell death, present in the uterine tissues. The TUNEL assay was performed on sections of uterine tissue according to manufacturer's instructions using ApopTag Fluorescein In Situ Apoptosis Detection Kit (# S7160, Millipore). The TUNEL assay, which identifies cells undergoing apoptosis, was semiquantitatively analyzed using areas of 0.02 mm^2 (3 different areas counted from each section, with sections obtained from 4 different lesions), and semiquantitatively analyzed.

PGR = experiment: Immunohistochemistry of endometriotic lesions, PGR; type: in vivo, mice; conditions: 3 weeks; for % of PGR positive cells/total cells/0.007 mm^2, Stroma: control 47.2 ± 4.0; for % of PGR positive cells/total cells/0.007 mm^2, Epithelium: control 76.7 ± 7.0
From the text: The presence and location of different proteins in the tissues obtained from the recipient mice. Samples of uterine tissue were isolated from the recipient mice, fixed by standard histological methods, and embedded in paraffin. Thin sections (5 μm) of the paraffin-embedded tissues were screened with standard immunohistochemical methods using antibodies to identify the expression of in the uterine tissues.
Primary antibodies that recognized MKI67 (Ki67), PECAM1 (CD31), ESR1, PGR, p-CHUK (IKK), p-STAT3, NOS2 (iNOS) and PTGS2 (COX2), and Vectastain Elite ABC Kit (# PK-6101), Mouse on Mouse Basic Kit (# BMK-2202, Vector laboratories) or DyLight-conjugated secondary antibody (#711-516-152, Jackson ImmunoResearch Lab) were used to show the presence of the proteins in the tissues, which were examined under microscopes.
The primary antibodies used in these analyses were: anti-MKI67 (Ki67, 1:200 dilution, 550609, BD Biosciences), anti-PECAM1 (CD31, 1:100 dilution, ab28364, Abcam), anti-ESR1 (1:100 dilution, sc-542, Santa Cruz Biotechnology), anti-PGR (1:200 dilution, RB-9017-P0, Thermo Scientific), anti-p-CHUK (IKK, 1:150 dilution, 2697, Cell Signaling Technology), anti-p-STAT3 (1:50 dilution, 9145, Cell Signaling Technology), anti-NOS2 (iNOS, 1:50 dilution, 610333, BD Biosciences) and anti-PTGS2 (COX2, 1:50 dilution, RM-9121, Thermo Scientific).
The expression of MKI67, ESR1, PGR, p-CHUK, p-STAT3, NOS2 and PTGS2 proteins in uterine tissues, as determined by immunohistochemical analysis of uterine tissue sections, was semiquantitatively analyzed. Levels of apoptosis were analyzed by TUNEL assay and also semiquantitatively analyzed. Histological sections were obtained from 4 different lesions. For each section, three different areas measuring 0.007 mm^2 were chosen. In each of those areas, the total number of epithelial or stromal cells was counted, as was the number of cells that tested positive for expressing MKI67 (a marker of cellular proliferation), steroid receptors ESR1 and PGR, and inflammatory signaling molecules p-CHUK, p-STAT3, NOS2 and PTGS2 proteins.

[1] = tested on: genes related to inflammation; experiment: RNA sequencing and qPCR of endometriotic lesions; type: in vivo, mice; conditions: 3 weeks vs control
Description: The endometriotic lesions were screened by RNA sequencing for the expression of a variety of genes of interest. Total RNA was isolated from the lesions using the RNeasy mini kit (#74104, Qiagen). RNA quality was assessed, and RNA-sequencing (RNA-seq) were performed at the Functional Genomics Core Facility of University of Illinois. Briefly, the stranded RNA-seq libraries were prepared with IIlumina's TruSeq Stranded RNA Sample Prep kit (# RS-122-2201, Illumina). The libraries were pooled in equimolar concentration, and the pool was quantitated by qPCR and sequenced on one lane for 101 cycles on a HiSeq2500 (Illumina) using a HiSeq SBS sequencing kit (# FC-401-4002, Illumina). Fastq files were generated and demultiplexed with the bcl2fastq v1.8.4 Conversion Software (Illumina). Quantitative PCR (qPCR) was performed as described previously [Reardon, 2012]. The 5′-3′ sequences of the primer pairs (forward and reverse primer pairs) used to determine the presence of different genes are shown in Table 3. For each gene, the name of the gene, the accession number of the gene, the 5′-3′ sequence of the paired primers, and the length of the amplicon obtained is provided in Table 3. All experimental data were subjected to one-way ANOVA tests and the differences between individual means were tested by a Tukey multiple-range test using Prism 5.0 (GraphPad). qPCR data were tested by t-test using Prism 5.0. Tests of significance were performed using the appropriate error terms according to the expectation of the mean squares for error. […] Data are presented as mean with standard error of the mean (SEM).

mice = conditions: cited from earlier work
[2] = ORGANIZATION WH, 2002; cited from earlier work

O=C(Nc1ccc([N+](=O)[O-])cc1Cl)c1cc(Cl)ccc1O [niclosamide, 5-chloro-N-(2-chloro-4-nitrophenyl)-2-hydroxybenzamide]
lesion weight (endometriotic lesions; 100 mg/kg b.w./day oral): 0.023 ± 0.004 g
lesion volume (endometriotic lesions; 100 mg/kg b.w./day oral, no significant difference): 23.15±5.0 mm3
lesion weight (endometriotic lesions; 200 mg/kg b.w./day oral): 0.016 ± 0.003 g
lesion volume (endometriotic lesions; 200 mg/kg b.w./day oral): 7.4±0.8 mm3
number of lesions between treatment groups (endometriotic lesions; oral 50, 100 or 200 mg/kg b.w. vs controls): did not differ
total weight of lesions (endometriotic lesions; oral niclosamide 50 mg/kg b.w., n=7): 114.9 ± 31.6 mg
total weight of lesions (endometriotic lesions; oral niclosamide 100 mg/kg b.w., n=9): 76.2 ± 18.3 mg
total weight of lesions (endometriotic lesions; oral niclosamide 200 mg/kg b.w., n=20): 44.9 ± 7.43 mg
Cell number of TUNEL positive cells/0.02 mm^2 (apoptosis; 100 mg/kg b.w./day oral): 8.2 ± 1.3 cells/0.02 mm^2
Cell number of TUNEL positive cells/0.02 mm^2 (apoptosis; 200 mg/kg b.w./day oral): 7.8 ± 1.0 cells/0.02 mm^2
% of PGR positive cells/total cells/0.007 mm^2, Stroma (PGR; 100 mg/kg b.w./day oral): 58.1 ± 5.2%
% of PGR positive cells/total cells/0.007 mm^2, Epithelium (PGR; 100 mg/kg b.w./day oral): 60.4 ± 10.7%
% of PGR positive cells/total cells/0.007 mm^2, Stroma (PGR; 200 mg/kg b.w./day oral): 50.1 ± 6.9%
% of PGR positive cells/total cells/0.007 mm^2, Epithelium (PGR; 200 mg/kg b.w./day oral): 69.9 ± 12.2%
Ccl17 level in the endometriotic lesions ([1]; 200 mg/kg b.w./day): increased
expression of genes related to inflammation (Cxcl14, Lep, Lpo, Muc13, Trpc3 and Ptprz1) in the endometriotic lesions ([1]; qPCR n=6-8, 200 mg/kg b.w./day): significantly decreased
expression of Id4 and Wnt7a in treated lesions ([1]; qPCR, 200 mg/kg b.w./day): reduced
LD50, acute toxicity (mice): > 1500 mg/kg b.w.
water solubility [2]: < 20 µM
